Measurements reported in ChEMBL document CHEMBL5463723, “Data for DCP probe BIBO3304” (2023).

Columns and labels:
[1] = target: 5-hydroxytryptamine receptor 1B (Homo sapiens) (UniProt P28222); assay: 5-HT1B Eurofins-Cerep binding assay; set-up: ligand concentration 1 nM; details: Compound concentration 10.0 uM
[2] = target: Prostaglandin G/H synthase 2 (Homo sapiens) (UniProt P35354); assay: Inhibitor of COX-2 in the Eurofins Cerep SafetyScreen44 (BI) by Fluorimetry (Cerep_4186); details: Compound concentration 10.0 uM
[3] = target: Kappa-type opioid receptor (Homo sapiens) (UniProt P41145); assay: kappa (KOP) Eurofins-Cerep binding assay; details: Compound concentration 10.0 uM
[4] = target: Angiotensin-converting enzyme (Homo sapiens) (UniProt P12821); assay: Activity against ACE(HU_AMTCH400) in the Eurofins Cerep SafetyScreen44 (BI) by Photometry (Cerep_3441); details: Compound concentration 10.0 uM
[5] = target: L-type calcium channel (dihydropyridine site), Cav1.2 alpha-1C (Rattus norvegicus, UniProt P22002); assay: Inhibitor of CA+/DHPSI/R in the Eurofins Cerep SafetyScreen44 (BI) by Radioactive Assay (Cerep_161); type: protein assay; set-up: scale not given: the % may be the effect or the level left; details: rat brain, probe [3H](+)PN200-110, compound concentration 10 uM, read-out: % Ctrl
[6] = target: D(1A) dopamine receptor (Homo sapiens) (UniProt P21728); assay: D1 Eurofins-Cerep binding assay; set-up: ligand concentration 0.3 nM; details: Compound concentration 10.0 uM
[7] = species: Rattus norvegicus; assay: KV channel Eurofins-Cerep binding assay; set-up: ligand concentration 0.01 nM; details: Compound concentration 10.0 uM
[8] = target: Sodium-dependent serotonin transporter (Homo sapiens) (UniProt P31645); assay: 5-HT transporter Eurofins-Cerep binding assay; set-up: ligand concentration 2 nM; details: Compound concentration 10.0 uM
[9] = target: T1, Neuropeptide Y receptor type 2 (Homo sapiens, UniProt P49146); assay: Radioligand binding assay (NPY2R, BHK); type: cell-based, BHK-21
T1 sequence (P49146 whole entry): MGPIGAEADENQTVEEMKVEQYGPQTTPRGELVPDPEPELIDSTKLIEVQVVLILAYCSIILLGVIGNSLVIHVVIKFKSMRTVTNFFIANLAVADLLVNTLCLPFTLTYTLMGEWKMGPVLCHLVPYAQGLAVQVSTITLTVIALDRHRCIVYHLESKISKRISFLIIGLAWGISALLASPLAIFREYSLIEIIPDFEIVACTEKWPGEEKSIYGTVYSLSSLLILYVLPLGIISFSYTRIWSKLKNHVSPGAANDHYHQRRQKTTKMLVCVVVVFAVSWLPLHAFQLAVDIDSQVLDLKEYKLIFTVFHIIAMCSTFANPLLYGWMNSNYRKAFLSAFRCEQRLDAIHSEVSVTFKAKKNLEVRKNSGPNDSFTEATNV

[10] = target: Neuropeptide Y receptor type 2 (Rattus norvegicus, UniProt Q9ERC0); assay: Radioligand binding assay (NPY2R, rat hippocampus); type: tissue-based
[11] = target: Neuropeptide Y receptor type 5 (Homo sapiens, UniProt Q15761); assay: Radioligand binding assay (human NPY5R, HEK293); type: cell-based
[12] = target: Polyunsaturated fatty acid lipoxygenase ALOX15 (Oryctolagus cuniculus) (UniProt P12530); assay: Inhibitor of 15LO in the Eurofins Panlabs screen (BI) by absorption of electromagnetic radiation; details: Compound concentration 30.0 uM
[13] = species: Oryctolagus cuniculus; assay: Activity against 5HT3/RB in the Eurofins Panlabs screen (BI) by Radioactive Assay; details: Compound concentration 10.0 uM
[14] = target: Adenosine receptor A2a (Rattus norvegicus) (UniProt P30543); assay: Activity against A2A/R in the Eurofins Panlabs screen (BI) by Radioactive Assay; details: Compound concentration 10.0 uM
[15] = target: Alpha-1D adrenergic receptor (Rattus norvegicus) (UniProt P23944); assay: Activity against ALPHA1/R in the Eurofins Panlabs screen (BI) by Others; details: Compound concentration 10.0 uM
[16] = target: Alpha-2B adrenergic receptor (Rattus norvegicus) (UniProt P19328); assay: Activity against ALPHA2B/R in the Eurofins Panlabs screen (BI); details: Compound concentration 10.0 uM
[17] = species: Cavia porcellus; assay: Activity against ANF/GP in the Eurofins Panlabs screen (BI) by Radioactive Assay; details: Compound concentration 10.0 uM
[18] = target: Gastrin/cholecystokinin type B receptor (Mus musculus) (UniProt P56481); assay: Activity against CCKB/M in the Eurofins Panlabs screen (BI); details: Compound concentration 10.0 uM
[19] = target: Epidermal growth factor receptor (Homo sapiens) (UniProt P00533); assay: Activity against EGF/HU in the Eurofins Panlabs screen (BI) by Radioactive Assay; details: Compound concentration 10.0 uM
[20] = target: Endothelin-1 receptor (Rattus norvegicus) (UniProt P26684); assay: Activity against ETA/R in the Eurofins Panlabs screen (BI) by Radioactive Assay; details: Compound concentration 10.0 uM
[21] = target: Endothelin receptor type B (Rattus norvegicus) (UniProt P21451); assay: Activity against ETB/R in the Eurofins Panlabs screen (BI) by Radioactive Assay; details: Compound concentration 10.0 uM
[22] = target: Potassium voltage-gated channel subfamily V member 1 (Rattus norvegicus) (UniProt P97557); assay: Activity against K+/KV/R in the Eurofins Panlabs screen (BI) by Radioactive Assay; details: Compound concentration 10.0 uM
[23] = target: Small conductance calcium-activated potassium channel protein 1 (Rattus norvegicus) (UniProt P70606); assay: Activity against K+/SKCA in the Eurofins Panlabs screen (BI) by Radioactive Assay; details: Compound concentration 10.0 uM
[24] = target: Kappa-type opioid receptor (Cavia porcellus) (UniProt P41144); assay: Activity against KAPPA/GP in the Eurofins Panlabs screen (BI) by Radioactive Assay; details: Compound concentration 10.0 uM
[25] = target: Leukotriene A-4 hydrolase (Cavia porcellus) (UniProt P19602); assay: Inhibitor of LTA4HYD in the Eurofins Panlabs screen (BI) by Radioactive Assay; details: Compound concentration 100.0 uM
[26] = target: Muscarinic acetylcholine receptor M2 (Rattus norvegicus) (UniProt P10980); assay: Activity against M2/R in the Eurofins Panlabs screen (BI) by Radioactive Assay; details: Compound concentration 10.0 uM
[27] = target: Muscarinic acetylcholine receptor (Oryctolagus cuniculus) (UniProt A0A5F9DUN4); assay: Activity against M4/RB in the Eurofins Panlabs screen (BI) by Radioactive Assay; details: Compound concentration 10.0 uM
[28] = target: Glutamate receptor ionotropic, NMDA 1 (Rattus norvegicus) (UniProt P35439); assay: Activity against NMDAGLSI/R in the Eurofins Panlabs screen (BI) by Radioactive Assay; details: Compound concentration 10.0 uM
[29] = target: Opioid receptor (Rattus norvegicus) (UniProt P33533+P34975+P33535); assay: Activity against OPIAT/NS in the Eurofins Panlabs screen (BI) by Radioactive Assay; type: protein assay; details: Compound concentration 10.0 uM
[30] = target: Platelet-activating factor receptor (Oryctolagus cuniculus) (UniProt G1TEI7); assay: Activity against PAF/RB in the Eurofins Panlabs screen (BI) by Radioactive Assay; details: Compound concentration 10.0 uM
[31] = target: Protein kinase C alpha type (Homo sapiens) (UniProt P17252); assay: Inhibitor of PKCALPHA in the Eurofins Panlabs screen (BI) by Radioactive Assay; details: Compound concentration 10.0 uM
[32] = target: Protein kinase C gamma type (Homo sapiens) (UniProt P05129); assay: Inhibitor of PKCGAMMA in the Eurofins Panlabs screen (BI) by Radioactive Assay; details: Compound concentration 10.0 uM
[33] = target: Transmembrane protein 97 (Cavia porcellus) (UniProt H0V073); assay: Activity against SIGMA2/GP in the Eurofins Panlabs screen (BI) by Radioactive Assay; details: Compound concentration 10.0 uM
[34] = target: Somatostatin receptor type 5 (Mus musculus) (UniProt O08858); assay: Activity against SOMATOS/MO in the Eurofins Panlabs screen (BI) by Radioactive Assay; details: Compound concentration 10.0 uM
[35] = target: Vasopressin V1a receptor (Rattus norvegicus) (UniProt P30560); assay: Activity against V1/RA in the Eurofins Panlabs screen (BI) by Radioactive Assay; details: Compound concentration 10.0 uM

Sequence of Kappa-type opioid receptor (Cavia porcellus) (P41144 whole entry): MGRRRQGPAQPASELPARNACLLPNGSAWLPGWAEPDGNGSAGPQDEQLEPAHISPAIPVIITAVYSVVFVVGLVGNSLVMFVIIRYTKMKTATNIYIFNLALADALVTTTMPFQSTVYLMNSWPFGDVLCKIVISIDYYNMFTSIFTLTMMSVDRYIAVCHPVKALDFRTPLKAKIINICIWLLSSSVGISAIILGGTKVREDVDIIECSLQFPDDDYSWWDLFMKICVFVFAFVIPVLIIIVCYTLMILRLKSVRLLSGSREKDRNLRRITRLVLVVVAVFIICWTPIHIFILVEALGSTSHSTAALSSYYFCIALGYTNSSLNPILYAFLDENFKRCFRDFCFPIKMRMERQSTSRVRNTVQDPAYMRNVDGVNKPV
Sequence of Neuropeptide Y receptor type 2 (Rattus norvegicus, UniProt Q9ERC0) (Q9ERC0 whole entry): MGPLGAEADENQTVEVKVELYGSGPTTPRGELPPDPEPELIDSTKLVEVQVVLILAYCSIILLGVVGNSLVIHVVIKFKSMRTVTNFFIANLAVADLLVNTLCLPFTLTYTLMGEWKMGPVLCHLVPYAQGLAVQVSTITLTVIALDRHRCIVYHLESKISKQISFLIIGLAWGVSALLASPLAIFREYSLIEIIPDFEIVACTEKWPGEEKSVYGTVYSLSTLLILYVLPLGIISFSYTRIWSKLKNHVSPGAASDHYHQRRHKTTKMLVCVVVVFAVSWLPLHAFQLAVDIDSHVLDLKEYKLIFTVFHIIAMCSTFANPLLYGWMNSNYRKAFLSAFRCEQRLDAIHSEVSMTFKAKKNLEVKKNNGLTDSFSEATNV
Sequence of Transmembrane protein 97 (Cavia porcellus) (H0V073 as listed by the source): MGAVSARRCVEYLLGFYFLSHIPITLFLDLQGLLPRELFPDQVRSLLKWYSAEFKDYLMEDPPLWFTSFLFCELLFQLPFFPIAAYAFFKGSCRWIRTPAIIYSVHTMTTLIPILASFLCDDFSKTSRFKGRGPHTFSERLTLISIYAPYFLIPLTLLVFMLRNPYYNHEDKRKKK
Sequence of Leukotriene A-4 hydrolase (Cavia porcellus) (P19602 whole entry): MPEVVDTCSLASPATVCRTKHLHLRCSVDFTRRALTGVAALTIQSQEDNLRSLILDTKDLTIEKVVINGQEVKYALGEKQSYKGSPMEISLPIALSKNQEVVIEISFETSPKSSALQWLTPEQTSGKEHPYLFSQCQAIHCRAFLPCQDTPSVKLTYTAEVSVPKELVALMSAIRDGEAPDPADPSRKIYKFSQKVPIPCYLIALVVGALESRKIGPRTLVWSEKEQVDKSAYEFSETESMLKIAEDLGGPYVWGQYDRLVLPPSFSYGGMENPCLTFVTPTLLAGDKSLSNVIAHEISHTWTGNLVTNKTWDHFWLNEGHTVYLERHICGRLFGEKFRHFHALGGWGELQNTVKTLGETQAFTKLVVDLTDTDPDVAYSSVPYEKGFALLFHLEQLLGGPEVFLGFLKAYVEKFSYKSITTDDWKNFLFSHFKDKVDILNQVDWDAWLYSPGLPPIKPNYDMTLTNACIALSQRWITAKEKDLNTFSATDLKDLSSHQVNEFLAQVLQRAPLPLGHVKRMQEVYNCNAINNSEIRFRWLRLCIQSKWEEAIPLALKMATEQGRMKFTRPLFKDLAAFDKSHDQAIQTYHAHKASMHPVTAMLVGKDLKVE
Sequence of Alpha-1D adrenergic receptor (Rattus norvegicus) (P23944 whole entry): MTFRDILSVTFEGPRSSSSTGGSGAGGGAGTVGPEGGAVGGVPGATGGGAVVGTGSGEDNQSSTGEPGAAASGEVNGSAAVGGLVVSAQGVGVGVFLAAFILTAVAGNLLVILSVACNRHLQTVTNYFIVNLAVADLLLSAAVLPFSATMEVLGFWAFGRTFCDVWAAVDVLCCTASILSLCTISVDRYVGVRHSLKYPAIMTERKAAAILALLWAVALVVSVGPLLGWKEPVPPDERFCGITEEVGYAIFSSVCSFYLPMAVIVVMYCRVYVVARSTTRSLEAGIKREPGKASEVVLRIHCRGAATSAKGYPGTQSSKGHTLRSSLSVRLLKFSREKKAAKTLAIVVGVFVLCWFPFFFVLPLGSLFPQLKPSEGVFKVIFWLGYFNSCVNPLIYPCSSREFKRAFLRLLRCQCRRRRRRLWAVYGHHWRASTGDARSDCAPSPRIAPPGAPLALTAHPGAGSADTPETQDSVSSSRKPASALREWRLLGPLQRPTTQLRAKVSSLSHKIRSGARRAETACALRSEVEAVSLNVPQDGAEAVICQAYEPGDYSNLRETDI
Sequence of Somatostatin receptor type 5 (Mus musculus) (O08858 whole entry): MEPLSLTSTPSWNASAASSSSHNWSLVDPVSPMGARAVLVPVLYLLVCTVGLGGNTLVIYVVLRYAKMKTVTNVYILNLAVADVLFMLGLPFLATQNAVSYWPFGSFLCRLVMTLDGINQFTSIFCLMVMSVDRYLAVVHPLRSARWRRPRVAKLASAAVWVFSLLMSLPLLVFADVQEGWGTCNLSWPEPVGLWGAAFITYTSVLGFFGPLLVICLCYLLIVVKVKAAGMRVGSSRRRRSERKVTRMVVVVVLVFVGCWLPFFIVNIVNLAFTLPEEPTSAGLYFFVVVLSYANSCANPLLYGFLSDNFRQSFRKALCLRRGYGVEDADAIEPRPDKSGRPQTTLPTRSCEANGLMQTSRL
Sequence of Small conductance calcium-activated potassium channel protein 1 (Rattus norvegicus) (P70606 whole entry): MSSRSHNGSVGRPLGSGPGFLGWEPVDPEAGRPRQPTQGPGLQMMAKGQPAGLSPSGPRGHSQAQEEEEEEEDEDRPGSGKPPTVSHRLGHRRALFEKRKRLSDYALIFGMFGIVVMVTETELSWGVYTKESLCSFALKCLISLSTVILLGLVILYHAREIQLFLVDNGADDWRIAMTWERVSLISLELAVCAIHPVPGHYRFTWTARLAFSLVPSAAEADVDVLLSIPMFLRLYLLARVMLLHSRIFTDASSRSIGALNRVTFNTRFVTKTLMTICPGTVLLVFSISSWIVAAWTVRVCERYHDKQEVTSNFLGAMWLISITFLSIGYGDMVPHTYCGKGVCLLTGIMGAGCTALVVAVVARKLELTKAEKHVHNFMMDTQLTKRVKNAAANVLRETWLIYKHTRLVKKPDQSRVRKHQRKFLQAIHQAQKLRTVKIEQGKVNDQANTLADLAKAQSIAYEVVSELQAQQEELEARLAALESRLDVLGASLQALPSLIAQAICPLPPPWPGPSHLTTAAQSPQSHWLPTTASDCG
Sequence of Opioid receptor (Rattus norvegicus) (P33533 whole entry, looked up): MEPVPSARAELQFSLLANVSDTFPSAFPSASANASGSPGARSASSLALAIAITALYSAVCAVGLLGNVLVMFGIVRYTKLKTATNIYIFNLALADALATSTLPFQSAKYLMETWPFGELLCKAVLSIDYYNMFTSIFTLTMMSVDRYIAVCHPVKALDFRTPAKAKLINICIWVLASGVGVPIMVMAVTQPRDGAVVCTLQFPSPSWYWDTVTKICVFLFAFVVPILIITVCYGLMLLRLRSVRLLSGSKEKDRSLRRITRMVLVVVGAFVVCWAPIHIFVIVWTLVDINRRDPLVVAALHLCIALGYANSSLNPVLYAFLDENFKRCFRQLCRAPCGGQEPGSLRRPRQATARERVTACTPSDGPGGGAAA
Sequence of Opioid receptor (Rattus norvegicus) (P33535 whole entry, looked up): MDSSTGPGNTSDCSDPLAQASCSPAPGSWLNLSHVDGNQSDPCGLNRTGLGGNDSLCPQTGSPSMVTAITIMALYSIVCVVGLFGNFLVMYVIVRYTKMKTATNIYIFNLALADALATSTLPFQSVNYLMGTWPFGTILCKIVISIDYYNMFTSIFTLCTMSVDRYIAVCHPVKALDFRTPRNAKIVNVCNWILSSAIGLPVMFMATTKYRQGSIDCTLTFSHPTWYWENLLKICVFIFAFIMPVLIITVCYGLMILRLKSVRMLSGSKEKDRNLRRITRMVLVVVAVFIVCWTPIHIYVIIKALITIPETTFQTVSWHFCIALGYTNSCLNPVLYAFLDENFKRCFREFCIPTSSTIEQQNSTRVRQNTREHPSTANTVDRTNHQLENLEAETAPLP
Sequence of Opioid receptor (Rattus norvegicus) (P34975 whole entry, looked up): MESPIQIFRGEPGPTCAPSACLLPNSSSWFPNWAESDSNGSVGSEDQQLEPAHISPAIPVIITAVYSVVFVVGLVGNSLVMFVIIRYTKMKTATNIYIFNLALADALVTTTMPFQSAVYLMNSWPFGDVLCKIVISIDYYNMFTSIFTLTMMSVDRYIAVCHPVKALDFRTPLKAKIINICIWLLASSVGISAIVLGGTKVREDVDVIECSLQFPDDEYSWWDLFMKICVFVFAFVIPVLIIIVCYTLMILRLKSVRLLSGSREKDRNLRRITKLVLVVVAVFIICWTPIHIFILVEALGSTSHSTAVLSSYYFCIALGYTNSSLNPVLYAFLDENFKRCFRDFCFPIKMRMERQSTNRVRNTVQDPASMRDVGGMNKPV
Sequence of Potassium voltage-gated channel subfamily V member 1 (Rattus norvegicus) (P97557 whole entry): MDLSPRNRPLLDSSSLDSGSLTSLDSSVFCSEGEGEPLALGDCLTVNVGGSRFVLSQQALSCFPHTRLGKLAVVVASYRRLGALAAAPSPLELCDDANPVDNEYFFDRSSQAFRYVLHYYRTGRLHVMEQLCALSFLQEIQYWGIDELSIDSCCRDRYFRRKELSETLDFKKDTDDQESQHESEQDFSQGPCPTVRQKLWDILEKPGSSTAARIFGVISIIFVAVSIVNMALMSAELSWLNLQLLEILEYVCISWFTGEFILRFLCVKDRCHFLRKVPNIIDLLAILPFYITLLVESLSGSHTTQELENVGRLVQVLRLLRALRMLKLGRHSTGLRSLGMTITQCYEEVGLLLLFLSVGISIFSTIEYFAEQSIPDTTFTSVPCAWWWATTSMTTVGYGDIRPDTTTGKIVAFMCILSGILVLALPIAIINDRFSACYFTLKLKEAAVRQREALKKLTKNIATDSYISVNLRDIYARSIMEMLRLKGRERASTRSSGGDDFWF

residual activity [1]: 60% | residual activity [3]: 30% | residual activity [6]: 97% | residual activity [7]: 100% | residual activity [8]: 84% | IC50 [9]: > 1 µM (not active) | IC50 [10]: > 10 µM (not active) | IC50 [11]: > 10 µM (not active) | residual activity [12]: 118% | residual activity [13]: 99% | residual activity [14]: 97% | residual activity [15]: 91% | residual activity [16]: 91% | residual activity [17]: 97% | residual activity [18]: 117% | residual activity [19]: 94% | residual activity [20]: 88% | residual activity [21]: 98% | residual activity [22]: 89% | residual activity [23]: 119% | residual activity [24]: 105% | residual activity [25]: 102% | residual activity [26]: 98% | residual activity [27]: 110% | residual activity [28]: 87% | residual activity [29]: 114% | residual activity [30]: 91% | residual activity [31]: 80% | residual activity [32]: 92% | residual activity [33]: 109% | residual activity [34]: 103% | residual activity [35]: 98%
SMILES: N=C(N)NCCC[C@@H](NC(=O)C(c1ccccc1)c1ccccc1)C(=O)NCc1ccc(CNC(N)=O)cc1
residual activity [2]: 61% | residual activity [4]: 103% | activity at 10 µM [5]: 70% (not active)
